Experimental data published in paper PMC9813109, “Phase I dose-escalation study of milademetan in patients with relapsed or refractory acute myeloid leukemia” (International Journal of Hematology, 2022).

Legend:
[1] = system: macrophage inhibitory cytokine-1 (MIC-1) serum levels; assay: Serum MIC-1 (GDF-15) ELISA, pharmacodynamic biomarker; format: in vivo, human
Procedure: To investigate biomarkers that could be potentially linked to the milademetan mechanism of action, blood, bone marrow, and serum were collected. TP53 tumor genotyping was done using bone marrow and blood samples collected before milademetan administration and at the end of treatment. TP53 genomic status was determined using a targeted next-generation sequencing following the reference human genome sequence (hg19). QIAamp® DSP FFPE Kit (Qiagen, Hilden, Germany) was used to extract DNA. Quantified DNA samples were processed by polymerase chain reaction (PCR) amplification using custom primer sets of all 11 TP53 exons. Libraries were prepared from purified PCR pools using Illumina TruSeq kits™ (Illumina, San Diego, CA, USA) and analyzed using the MiSeq platform™ (Illumina). Raw reads were aligned against hg19, and data sets were analyzed using a program developed in-house for genomic aberrations (i.e., mutations, deletions, and insertions) detection. Quantikine® ELISA Human GDF-15 immunoassay (R&D Systems, Inc., Minneapolis, MN, USA), employing the quantitative sandwich enzyme immunoassay technique, was used to determine serum MIC-1, also known as growth and differentiation factor-15 (GDF-15). […] In addition to descriptive statistics, the geometric mean and geometric coefficient of variation were used to describe the PK parameters. All analyses were conducted using SAS® software (version 9.4; SAS Institute Inc., Cary, NC, USA). The time courses of mean plasma milademetan concentrations on days 1 and 14 of cycle 1 (linear scale) in the QD 14/28-day schedule were used for pharmacokinetic analysis. The best response was measured as CR, CRh, CRi, or PR. For efficacy analysis, a waterfall plot of the best percent change from baseline blast count in bone marrow aspirate on the QD 14/28-day schedule was drawn to assess the blast count reduction. In addition, line plots of individual serum MIC-1 levels were drawn in the QD 14/28-day schedule for the pharmacodynamics analysis set.

[2] = system: hematologic malignancies like R/R AML and high-risk myelodysplastic syndrome; details: QD 14/28-day schedule, USA phase I, ref NCT02319369, data not published; cited from earlier work

For `CC1(C)CCC2(CC1)N[C@@H](C(=O)N[C@@H]1CC[C@@H](C(N)=O)OC1)[C@H](c1ccnc(Cl)c1F)[C@]21C(=O)Nc2cc(Cl)ccc21` [milademetan], the “Mean serum MIC-1 levels vs baseline” value ([1]; all cohorts, after administration) was “increased from baseline in all cohorts”, the “Peak MIC-1 levels, 120- and 160-mg cohorts vs 90-mg cohort” value ([1]; in vivo) was “tended to be higher” and the “Time of peak serum MIC-1 level” value ([1]; most patients) was “day 8 or 14 of cycle 1”. The “Maximum tolerated dose (MTD)” value [2] was 160 mg.
